Test results from patent publication US4208531A, “Synthetic aminoglycosides” (priority 1976, dated 1980).
≈ marks a conversion by molar mass, not a printed value. Read-outs that look alike come from different tables or passages of the source. Blank lines part the entries; values can stand above or below the compound they belong to.

Assays:
Assay in all cases: MIC, Steers agar-dilution method, Mueller-Hinton
Assay type in all cases: cell-based
Escherichia coli R 1513 = conditions: R1513, MuellerHinton broth pH 7.2
Description: (§1) Illustrated below is a table showing the minimal inhibitory concentrations (MIC's) of Kanamycin A together with those of one of the trisaccharides synthesized (Example I) against a variety of Gram-positive and Gram-negative bacteria as obtained by the Steers agar-dilution method with Mueller-Hinton agar medium.
(§2) In vitro activity of Kanamycin A and compound (Example LI). MIC's in
(§3) MuellerHinton broth pH 7.2.

[1] = test system: Micrococcus pyogenes aureus 6539 P; conditions: Staphylococcus aureus, AUREUS6539P
Description: as §1, §2, §3

Proteus mirabilis = test system: Proteus mirabilis
Description: as §1, §2, §3

Proteus morganii = conditions: Morganella morganii
Description: as §1, §2, §3

Proteus rettgeri = conditions: Providencia rettgeri
Description: as §1, §2, §3

[2] = test system: Pseudomonas aeruginosa D 15
Description: as §1, §2, §3

[3] = test system: Pseudomonas aeruginosa I.A.
Description: as §1, §2, §3

[4] = test system: Pseudomonas aeruginosa s.p.
Description: as §1, §2, §3

Salmonella sui-pestifer = test system: Salmonella sui-pestifer
Description: as §1, §2, §3

Salmonella tiphymurium = test system: Salmonella tiphymurium
Description: as §1, §2, §3

[5] = test system: Staphylococcus pyogenes Smith A; conditions: Staphylococcus aureus
Description: as §1, §2, §3

MIC (Escherichia coli R 1513): 32 µg/mL
MIC ([1]; Micrococcus pyogenes aureus 6539 P, MuellerHinton broth pH 7.2, read-out: MIC): 0.4 µg/mL
MIC (Proteus mirabilis; MuellerHinton broth pH 7.2, read-out: MIC): 0.4 µg/mL
MIC (Proteus morganii; Proteus morganii, MuellerHinton broth pH 7.2, read-out: MIC): 0.2 µg/mL
MIC (Proteus rettgeri; Proteus rettgeri, MuellerHinton broth pH 7.2, read-out: MIC): 0.2 µg/mL
MIC ([2]; D15, Pseudomonas aeruginosa D 15, MuellerHinton broth pH 7.2, read-out: MIC): 8 µg/mL
MIC ([3]; Pseudomonas aeruginosa I.A., MuellerHinton broth pH 7.2, read-out: MIC): 32 µg/mL
MIC ([4]; Pseudomonas aeruginosa s.p., MuellerHinton broth pH 7.2, read-out: MIC): 16 µg/mL
MIC (Salmonella sui-pestifer; Salmonella sui-pestifer, MuellerHinton broth pH 7.2, read-out: MIC): 32 µg/mL
MIC (Salmonella tiphymurium; Salmonella tiphymurium, MuellerHinton broth pH 7.2, read-out: MIC): 32 µg/mL
MIC ([5]; Staphylococcus pyogenes Smith A, MuellerHinton broth pH 7.2, read-out: MIC): 0.4 µg/mL
Compound: NCC1OC(OC2CCC(OC3C(N)CC(N)C(O)C3O)OC2CN)CCC1O (stereo not drawn) [Example LI, 4-O-[4-O-(6-amino-2,3,6-trideoxy-α-O-erythro-hexopyranosyl)-6-amino-2,3,6-trideoxy-αO-erythro-hexopyranosyl]-2-deoxystreptamine disulphate]

Compound: NCC1OC(OC2C(N)CC(N)C(OC3OC(CO)C(O)C(N)C3O)C2O)C(O)C(O)C1O (stereo not shown) [Kanamycin A]
MIC (Escherichia coli R 1513): 100 µg/mL (≈ 206 µM)
MIC ([1]; pH 7.2): 0.8 µg/mL (≈ 1.65 µM)
MIC (Proteus mirabilis; pH 7.2): 2 µg/mL (≈ 4.13 µM)
MIC (Proteus morganii; pH 7.2): 0.8 µg/mL (≈ 1.65 µM)
MIC (Proteus rettgeri; pH 7.2): 0.4 µg/mL (≈ 0.826 µM)
MIC ([2]; Pseudomonas aeruginosa, D15, pH 7.2): 25 µg/mL (≈ 51.6 µM)
MIC ([3]; Pseudomonas aeruginosa, pH 7.2): 100 µg/mL (≈ 206 µM)
MIC ([4]; Pseudomonas aeruginosa, pH 7.2): 100 µg/mL (≈ 206 µM)
MIC (Salmonella sui-pestifer; Salmonella, pH 7.2): 32 µg/mL (≈ 66 µM)
MIC (Salmonella tiphymurium; Salmonella, pH 7.2): 100 µg/mL (≈ 206 µM)
MIC ([5]; pH 7.2): 0.8 µg/mL (≈ 1.65 µM)
